In article PMC4832308 (Cancer, 2015):
Values after ≈ are worked out from the molar mass of the structure shown. Where two headings read alike, the source gives them in different places.

Tests used:
[1] = urine pharmacokinetics in patients; settings: human, in vivo
pAKT = experiment: blood biomarker analysis by flow cytometry and PK/PD modeling; assay type: in vivo, human; settings: for EC50: Homo sapiens, read-out: EC50 for pAKT inhibition
[2] = system: U87 glioblastoma multiforme; settings: cited from earlier work

With `CO[C@H]1CC[C@H](N2C(=O)CNc3ncc(-c4ccc(C(C)(C)O)nc4)nc32)CC1` [CC‐223] the “fraction excreted unchanged in urine” value [1] was under 0.2%, the renal clearance [1] was “negligible” and the “pAKT inhibition in blood cells” value (pAKT; 30‐, 45‐, and 60‐mg dose levels, 3 hours on treatment) was over 48%. For the same compound, the EC50 (pAKT; B-cell) was 0.0504 µg/mL (≈ 0.127 µM), the EC50 (pAKT; Monocyte) was 0.085 µg/mL (≈ 0.214 µM) and the “single‐agent activity in xenograft model” value [2] was “single‐agent activity”.
